Laboratory results from PMC9849758, “Chemically diverse activity-based probes with unexpected inhibitory mechanisms targeting trypsin-like serine proteases” (Frontiers in Chemistry, 2023).
Counter-ions that a name gives are not always drawn.

Tests used:
[1] = target: T1, uPA (Homo sapiens, UniProt P00749); test: Jump dilution, determination of inhibition type; assay type: biochemical; details: inhibitor at 10 times IC50, 15 min, diluted 10-fold or 100-fold; Rev./Irrev.
T1 construct: purchased HYPHEN BioMed
Method: (§1) The dissociation of the enzyme-inhibitor complex was monitored by substrate hydrolysis over time ([Joossens et al., 2006]).
(§2) Because ABPs are designed to be irreversible serine protease inhibitors, the IC50 is exclusively used as a first discriminatory evaluation. When an inhibitor is irreversible, its IC50 value not only depends on the substrate and enzyme concentration but also on the time of incubation with the enzyme before the reaction is started by adding the substrate. […] The progress curve in the presence of an irreversible inhibitor will show final velocities equal to zero (Figure 6C). In contrast, for a reversible inhibitor, progress curves have a non-zero final steady-state velocity (Figure 6A) ([McWhirter, 2021]). To corroborate the inhibitory mechanism of the compounds, jump-dilution assays were performed. These use an inhibitor concentration of 10-fold the IC50 for the incubation, and a posteriori, the reaction mixture is diluted 10-fold or 100-fold before adding the substrate. In the case of an irreversible inhibitor, enzymatic activity is not regained (Figure 6D), whereas, in the case of a reversible compound, a slow release of the inhibitor and a gradual increase of the enzymatic activity rate is observed (Figure 6B) ([Copeland, 2013]; [McWhirter, 2021]). The jump-dilution assays confirmed the behavior described by the progress curves.
(§3) 2.2.2 Jump dilution results
(§4) Supplementary Table 2. Jump dilution of selected alkyne and desthiobiotin probes against a panel of trypsin-like serine proteases. […]
(§5) # R R DtBa 3 tryptase Thrombin uPA CatG
(§6) 32b H Alk Irrev. Irrev. Rev. Irrev. Rev.
(§7) 45b DtB Irrev. Irrev. Rev. N.D. N.D.
(§8) 33b Alk Irrev. Irrev. Rev. Irrev. Rev.
(§9) 46b Cl DtB Irrev. Irrev. Rev. N.D. N.D.
(§10) 34b H Alk Rev. Rev. Rev. Irrev. Rev.
(§11) 50b DtB Rev. Rev. Rev. Irrev. Rev.
(§12) 35b Alk Rev. Rev. Rev. Irrev. Rev.
(§13) 52b NHCOMe DtB Rev. Rev. Rev. Irrev. Rev.
(§14) 36b Alk Rev. Rev. Rev. Irrev. Rev.
(§15) 54b Cl DtB Rev. Rev. Rev. Irrev. Rev.
(§16) 37b Alk Irrev. Irrev. N.D. Irrev. Irrev.
(§17) 55b H DtB Irrev. Irrev. N.D. Irrev. Irrev.
(§18) 38b Alk Irrev. Irrev. N.D. Irrev. Irrev.
(§19) 56b NHCOMe DtB Irrev. Irrev. N.D. Irrev. Irrev.
(§20) 39b Alk Irrev. Irrev. N.D. Irrev. Rev.
(§21) 57b Cl DtB Irrev. Irrev. N.D. Irrev. Rev.
(§22) 41b H Alk Irrev. Irrev. Irrev. N.D. N.D.
(§23) 31b Pro-Lys H Alk Irrev. Irrev. Irrev. Irrev. N.D. a Alk: ABP precursor bearing an alkyne; DtB: desthiobiotin probe b Panel of serine proteases abbreviations: urokinase plasminogen activator (uPA), cathepsin G (catG) N.D.: IC50 is greater than 10µM, and jump dilution was not performed
(§24) 2.2.3 Progress curves and Jump dilution experiments
(§25) Kinetic assays were performed in the following manner. The inhibitor was mixed with the substrate, and the buffer solution with the enzyme was added at the time zero. The progress curves show the release of para-nitroaniline (pNA) or 7-amino-4-methyl coumarin (AMC) as a function of time.
(§26) To monitor the dissociation of the inhibitor-enzyme, aliquots of the enzyme were incubated at 37 °C without and with the inhibitor at a concentration 10 times higher than its IC 50. The enzyme […]
(§27) min, the aliquots were diluted 10-fold or 100-fold into the substrate concentration and assay buffer used for the IC50 determination. The dissociation of the enzyme-inhibitor complex was monitored by substrate hydrolysis over time. Blue lines represent the control where no inhibitor was present. Pink lines represent the assay with inhibitor.

[2] = target: T2, CatG (Homo sapiens, UniProt P08311); test: Jump dilution, determination of inhibition type; assay type: biochemical; set-up: Cathepsin G (cathepsin G human neutrophil, Sigma-Aldrich); purchased Sigma-Aldrich; details: inhibitor at 10 times IC50, 15 min, diluted 10-fold or 100-fold; Rev./Irrev.
T2 sequence (P08311 21-255): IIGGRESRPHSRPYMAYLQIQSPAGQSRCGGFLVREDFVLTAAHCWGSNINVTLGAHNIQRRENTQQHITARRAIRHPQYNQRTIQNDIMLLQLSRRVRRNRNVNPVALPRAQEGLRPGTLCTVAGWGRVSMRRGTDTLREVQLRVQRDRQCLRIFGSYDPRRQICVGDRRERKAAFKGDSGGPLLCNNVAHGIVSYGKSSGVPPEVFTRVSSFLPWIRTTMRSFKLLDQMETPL
Method: as §1, §2, §3, §4, §5, §6, §7, §8, §9, §10, §11, §12, §13, §14, §15, §16, §17, §18, §19, §20, §21, §22, §23, §24, §25, §26, §27

SMILES	uPA jump dilution result [1]	CatG jump dilution result [2]
C#CCCCOC(=O)NC(c1ccc(NC(=N)N)cc1)P(=O)(Oc1ccc(Cl)cc1)Oc1ccc(Cl)cc1 (stereo not shown) [39b, Pent-4-yn-1-yl ((bis(4-chlorophenoxy)phosphoryl)(4-guanidinophenyl)methyl)carbamate]	Irrev.	Rev.
C#CCCCOC(=O)NC(c1ccc(NC(=N)N)cc1)P(=O)(Oc1ccc(NC(C)=O)cc1)Oc1ccc(NC(C)=O)cc1 (stereo not shown) [38b, Pent-4-yn-1-yl ((bis(4-acetamidophenoxy)phosphoryl)(4-guanidinophenyl)methyl) carbamate]	Irrev.	Irrev.
C#CCCCOC(=O)NC(CCCNC(=N)N)P(=O)(Oc1ccccc1)Oc1ccccc1 (stereo not shown) [32b]	Irrev.	Rev.
CC(=O)Nc1ccc(OP(=O)(Oc2ccc(NC(C)=O)cc2)C(NC(=O)OCCCc2cn(CCOCCOCCOCCNC(=O)CCCCC[C@H]3NC(=O)N[C@H]3C)nn2)c2ccc(NC(=N)N)cc2)cc1 (stereo partly shown) [56b]	Irrev.	Irrev.
C[C@@H]1NC(=O)N[C@@H]1CCCCCC(=O)NCCOCCOCCOCCn1cc(CCCOC(=O)NC(c2ccc(NC(=N)N)cc2)P(=O)(Oc2ccc(Cl)cc2)Oc2ccc(Cl)cc2)nn1 (stereo partly shown) [57b]	Irrev.	Rev.
C[C@@H]1NC(=O)N[C@@H]1CCCCCC(=O)NCCOCCOCCOCCn1cc(CCCOC(=O)NC(Cc2ccc(NC(=N)N)cc2)P(=O)(Oc2ccccc2)Oc2ccccc2)nn1 (stereo partly drawn) [50b, 3-(1-(18-((4R,5S)-5-methyl-2-oxoimidazolidin-4-yl)-13-oxo-3,6,9-trioxa-12-azaoctadecyl)-1H-1,2,3-triazol-4-yl)propyl (1-(diphenoxyphosphoryl)-2-(4-guanidinophenyl)ethyl)carbamate trifluoroacetate salt]	Irrev.	Rev.
CC(=O)Nc1ccc(OP(=O)(Oc2ccc(NC(C)=O)cc2)C(Cc2ccc(NC(=N)N)cc2)NC(=O)OCCCc2cn(CCOCCOCCOCCNC(=O)CCCCC[C@H]3NC(=O)N[C@H]3C)nn2)cc1 (stereo partly shown) [52b]	Irrev.	Rev.
C#CCCCOC(=O)NC(CCCNC(=N)N)P(=O)(Oc1ccc(Cl)cc1)Oc1ccc(Cl)cc1 (stereo not shown) [33b]	Irrev.	Rev.
C[C@@H]1NC(=O)N[C@@H]1CCCCCC(=O)NCCOCCOCCOCCn1cc(CCCOC(=O)NC(c2ccc(NC(=N)N)cc2)P(=O)(Oc2ccccc2)Oc2ccccc2)nn1 (stereo partly shown) [55b]	Irrev.	Irrev.
C#CCCCOC(=O)NC(Cc1ccc(NC(=N)N)cc1)P(=O)(Oc1ccc(Cl)cc1)Oc1ccc(Cl)cc1 (stereo not shown) [36b]	Irrev.	Rev.
C#CCCCOC(=O)NC(Cc1ccc(NC(=N)N)cc1)P(=O)(Oc1ccc(NC(C)=O)cc1)Oc1ccc(NC(C)=O)cc1 (stereo not shown) [35b]	Irrev.	Rev.
C#CCCCOC(=O)NC(Cc1ccc(NC(=N)N)cc1)P(=O)(Oc1ccccc1)Oc1ccccc1 (stereo not shown) [34b]	Irrev.	Rev.
C#CCCCOC(=O)NC(c1ccc(NC(=N)N)cc1)P(=O)(Oc1ccccc1)Oc1ccccc1.O=C(O)C(F)(F)F (stereo not shown) [37b, Pent-4-yn-1-yl ((diphenoxyphosphoryl)(4-guanidinophenyl)methyl)carbamate trifluoroacetate salt]	Irrev.	Irrev.
C[C@@H]1NC(=O)N[C@@H]1CCCCCC(=O)NCCOCCOCCOCCn1cc(CCCOC(=O)NC(Cc2ccc(NC(=N)N)cc2)P(=O)(Oc2ccc(Cl)cc2)Oc2ccc(Cl)cc2)nn1 (stereo partly shown) [54b]	Irrev.	Rev.
